The source of these data is the SangsterLogP compilation.

Experiment in series [1]: not given
The source holds these as a separate data set.

Experiment in series [2]: not given
The source holds these as a separate data set.

Experiment in series [3]: not given
The source holds these as a separate data set.

Experiment in series [4]: not given
This is another data set of the same source.

Experiment in series [5]: not given
The source holds these as a separate data set.

Experiment in series [6]: not given
This is another data set of the same source.

Series [7] in a line: method code SF-AS, from DOI: 10.2307/3574491, PMID: 940937. The settings on record: pH 7.4.
Series [8] in a line: method code SF-AS, from DOI: 10.1023/a:1021720128725.
The conditions of series [9]: pH 2.0.
Series [10] in a line: method code SF-RC,AS, from DOI: 10.1016/s0022-3565(25)22658-1, PMID: 3367302. Particulars: pH 7.4.
Experiment in series [11]: not given
This is another data set of the same source.

Series [12] is described as follows: method code SF-HPLC, from DOI: 10.1021/js980008v, PMID: 9758683.
Series [13] in a line: method code SF-RC, from DOI: 10.1007/bf01870888, PMID: 7057454.
A short description of series [14]: method code SF-GLC, from DOI: 10.1080/00032718608066246. Particulars: pH 7.0.
Experiment in series [15]: not given
This is another data set of the same source.

Experiment in series [16]: not given
This is another data set of the same source.

Experiment in series [17]: not given
The source holds these as a separate data set.

For the compound `CCN(CC)CCO`, the lipophilicity (logP) amounted to 0.31.

On to `CC(=O)OCCOC(C)=O`, for which the logP was 0.1.

For `Cc1cccc(C)c1C(=N)c1ccccc1`, in series [1], the logP was determined as 3.53.

In series [2], `Nc1c(Cl)cc(Cl)cc1Cl` yielded a lipophilicity (logP) of 3.42.

In turn, `CCOP(=S)(OCC)SCSP(=S)(OCC)OCC` registered a log partition coefficient (logP) in [3] of 4.

In turn, `CC(C)(C)c1cccc(C(C)(C)C)c1O` displayed a logP in series [4] of 4.92.

For `CN(C)C(=O)Nc1ccc(Oc2ccc(Cl)cc2)cc1`, the logP in series [5] was 3.7.

Regarding `COc1ccc(/C=C/[N+](=O)[O-])cc1`, the log partition coefficient (logP) in series [6] turned out to be 2.2.

On to `Cn1c(C=O)cnc1[N+](=O)[O-]`, for which the logD in series [7] is -0.1.

As for `COCC(O)Cn1c([N+](=O)[O-])cnc1C` (centres undefined), the logD in series [7] is 0.04.

In [7], `CCOC(=O)Cn1c(CC)cnc1[N+](=O)[O-]` displayed a logD of 0.

For `COc1ccc(-c2cn3c(=O)c4ncn(COCCO)c4nc3[nH]2)cc1`, the logP in series [8] worked out at 0.39.

Compound `Nc1nc2c(nc(Br)n2COCCO)c(=O)[nH]1` gave a log partition coefficient (logP) in series [8] of -0.26.

The compound `Nc1cccc(N)c1` gave a logP of 0.

As to `Cc1ccccc1C(=N)c1ccccc1`, the logP in [1] stood at 3.21.

For the compound `Cc1cnc([N+](=O)[O-])n1CCO`, in series [7], the logD came to 0.18.

As to `C/C=C/C=C/C(=O)O`, the logD in [9] worked out at 1.64.

Regarding `CCNC(=O)[C@@H](C)OC(=O)Nc1ccccc1`, the lipophilicity (logP) in [5] stood at 1.

Regarding `[N-]=[N+]=N[C@H]1C[C@H](n2ccc(=O)[nH]c2=O)O[C@@H]1CO`, the logD in [10] was -0.37.

In series [3], `Cc1ccc(C(=O)O)c(C2=NC(C)(C(C)C)C(=O)N2)c1` (centres undefined) came in with a logP of 1.54.

The compound `CC(C)(C(=O)O)C(=O)O` returned a logP of 0.26.

Compound `Nc1c(Cl)c(Cl)nc(C(=O)O)c1Cl` gave a log partition coefficient (logP) in series [5] of 1.

Compound `Cc1c(C)c2c(c(C)c1O)CCC(C)(COc1ccc(CC3SC(=O)NC3=O)cc1)O2` (centres undefined) displayed a logP in series [11] of 2.7.

In the case of `COP(=S)(CN1C(=O)c2ccccc2C1=O)OC`, the logP came out at 2.83.

In the case of `CCC(=O)OCN1C(=O)NC(c2ccccc2)(c2ccccc2)C1=O`, the log partition coefficient (logP) in [12] was found to be 3.34.

As to `NC(N)=O`, in [13], the logP was -1.54.

In series [11], `CO[C@H]1CCC[C@H]2C1=C(C(=O)OC(C)OC(=O)OC1CCCCC1)N1C(=O)[C@H]([C@@H](C)O)[C@@H]21` (some centres undefined) came in with a logP of 3.

`c1ccc2nc3ccccc3cc2c1` came in with a log distribution coefficient (logD) in series [14] of 3.32.

`Cc1c(F)c(F)c(COC(=O)[C@H]2[C@@H](/C=C(\Cl)C(F)(F)F)C2(C)C)c(F)c1F` had a logP in series [3] of 6.5.

The compound `O=[N+]([O-])c1nccn1CCO` registered a logD in series [7] of -0.51.

For `O=C(O)c1ccc(O)cc1O`, in [15], the lipophilicity (logP) stood at 1.41.

For `Cc1ccc(C(=N)c2ccc(C)cc2)cc1`, the logP in series [1] came out at 3.71.

The compound `CCCCCC` showed a lipophilicity (logP) in series [16] of 3.9.

In turn, `CCCC(C)C1(CC)C(=O)NC(=S)NC1=O` (centres undefined) yielded a logP in series [17] of 2.54.
